Experimental data as given in patent US12286439B2, “Inhibitors of ERK nuclear translocation” (Yeda Research and Development Co. Ltd., priority 2018, dated 2025).
*: point of attachment. Myristoyl = CCCCCCCCCCCCCC(=O)*

Assays:
[1] = tested on: PC3 cells; experiment: Dose-response analysis, PC3 cells; type: cell-based; settings: 10 μM, 72 hours
Protocol: (§1) FIG. 15A presents dose response curves of compounds C17, D3, D11 and D14 on 8 cancer cells. Five melanoma cell lines (A2185, A2352, A2024, A2058 and LOX-IMVI), HeLa, HCT-116 and PC3 cells were grown in 1% FCS media containing either DMSO (0.1%), EPE peptide (10 μM), or Compounds C17, D3, D11, D14 at the indicated concentrations, for 72 hours. Viable cells were quantified by staining with methylene blue. Data presented as percentage of DMSO control ±SE of triplicates. […] IC50 values were calculated by interpolation in the curves in FIG. 15A. […] Bar graphs represent average viability respect to DMSO control ±SE of triplicates.
(§2) Cell Viability (IC50) Assay:
(§3) Cells were seeded at a density of 4000 cells per well into 96-well plates in complete medium. After 24 hours, medium was replaced by 1% FCS (fetal calf serum) containing appropriate treatments. Fresh medium containing the same agents was replaced every day. After 96 hours, cell viability was assessed using the CellTiter-Glo reagent (Promega; Madison, WI). IC50 values were determined using GraphPad Prism.

[2] = tested on: ERK1/2 nuclear translocation; experiment: Determination of ERK1/2 localization by fluorescence microscopy after TPA stimulation; type: cell-based; settings: 10 μM, TPA 100 nM, 15 minutes
Protocol: Determination of Protein Localization by Fluorescence Microscopy:
Indicated cells were seeded on coverslips (coated with 0.001% w/v poly-L-lysine or not, depending on the cell line) at 50% confluency. After the indicated treatment, cells were fixed in 4% paraformaldehyde/PBS for 20 minutes on an ice surface, permeabilized with 0.1% Triton X-100/PBS for 5 minutes at 23° C., then blocked in 2% BSA/PBS for 30 minutes at 23° C. The fixed cells were sequentially incubated with appropriate antibodies (in 2% BSA/PBS, 1.5 hour), washed 3 times with PBS^−/−, and followed by incubation with either Cy-2-conjugated or rhodamine-conjugated secondary antibodies (1:200) and with DAPI ([…]; 1:100) in 2% BSA/PBS for 45 minutes. Slides were analyzed and photographed by a fluorescence microscope (Olympus BX51, ×40). Background correction, and contrast adjustment of raw data images were performed using Photoshop (Adobe, CA, USA).
The effect of Z56 was compared with that of the inhibitory effect of EPE peptide on nuclear translocation of ERK1/2.
The effects of the compounds on ERK1/2 nuclear translocation were evaluated in three cell lines (HeLa cells and two melanoma cell lines, A2185 and A2352), by treating the cells with each compound for two hours, and determining nuclear translocation using fluorescent anti-ERK antibodies, according to procedures described hereinabove.

[3] = tested on: HeLa, A2352, A2185, LOX-IMVI, A4132, A2024, MDA-MB-231, PC3, A2058 and MCF7 cells; experiment: Viability assay (methylene blue), ten cancer cell lines; type: cell-based; settings: 10 μM, 72 hours, 1% FCS
Protocol: Ten cancer cell lines were treated with either EPE peptide (10 μM; middle bars) or Compound Z56 (3 μM; right bars) or DMSO control (0.1%; left bars) in 1% FCS (fetal calf serum) for 72 hours.
A3252 and A2058 cells were treated either with EPE peptide (10 μM), Z56 (1, 3 or 10 μM) or DMSO control (0.1%). The graphs present the kinetics of cell proliferation at the indicated times. Viable cells were quantified by staining with methylene blue. All results were presented as a fold change of the initial cell number and represent averages ±SE of 3 experiments in triplicate.
Cells were seeded at low confluence into 24, 48 or 96-well plates in complete medium. After 24 hours, medium was replaced by 1% FCS (fetal calf serum) containing appropriate treatments. Fresh medium containing the same agents was replaced every day. After 72 or 96 hours of treatment, cells were fixed with 4% formaldehyde overnight at 23° C., washed once with 0.1 M borate buffer (pH 8.5) for 10 minutes, and stained with of 1% methylene blue in 0.1 M borate buffer (pH 8.5) for 30 minutes. Excess stain was washed out with distilled water. Color was extracted by adding 0.1 M HCl (3 hours, 23° C.), and absorbance measured at 595 nm in an ELISA reader. For time course experiments, attached cells were fixed and measured at 0, 24, 48, 72 and 96 hours. […]

[4] = tested on: Panc-1, AsPC-1, CFPAC-1, MIA PaCa-2, Capan-1, Capan-2 and BxPC-3 pancreatic cancer cells; experiment: Viability assay (methylene blue), pancreatic cancer cell lines; type: cell-based; settings: 10 μM, 72 hours
Protocol: FIGS. 6A and 6B present data showing that Compound Z56 prevents proliferation of pancreatic cancer cells. […] Panc-1, AsPC-1, CFPAC-1, Mia PaCa-2, Capan-1, Capan-2 (Ras-transformed) and BxPC-3 (Ras-wild type) pancreatic cancer cells were treated with either EPE peptide (10 μM; middle bars) or Z56 (3 μM; right bars) or DMSO control (0.1%; left bars) in 1% FCS for 72 hours. […] Panc-1, AsPC-1, BxPC-3 and Mia PaCa-2 cells grown in 1% FCS medium containing either EPE peptide (10 μM), 56 (3 μM), PLX4032 (1 μM), PD184352 (5 μM) or DMSO control (0.1%). The graphs present the kinetics of cell proliferation at the indicated times after the treatment started. Quantification of all viable cells was done by methylene blue and repeated 3 times in triplicates. All results presented as a fold change of the initial cell number and represent averages ±SE.
Cells were seeded at low confluence into 24, 48 or 96-well plates in complete medium. After 24 hours, medium was replaced by 1% FCS (fetal calf serum) containing appropriate treatments. Fresh medium containing the same agents was replaced every day. After 72 or 96 hours of treatment, cells were fixed with 4% formaldehyde overnight at 23° C., washed once with 0.1 M borate buffer (pH 8.5) for 10 minutes, and stained with of 1% methylene blue in 0.1 M borate buffer (pH 8.5) for 30 minutes. Excess stain was washed out with distilled water. Color was extracted by adding 0.1 M HCl (3 hours, 23° C.), and absorbance measured at 595 nm in an ELISA reader. For time course experiments, attached cells were fixed and measured at 0, 24, 48, 72 and 96 hours. For dose-response experiments, cells were treated with indicated concentrations of reagent, fixed and stained after 72 hours as above.
Activating mutations in Ras are found in more than 95% of pancreatic cancers where signaling through both Raf and Akt pathway drives cancer progression [Campbell et al., Cancer Res 2007, 67:2098-2106]. However, no effective treatments that target this mutant protein have reached the clinic to date, and pancreatic ductal adenocarcinoma remains an almost universally fatal disease [Bryant et al., Trends Biochem Sci 2014, 39:91-100]. Therefore, treating these pancreatic cancer cells downstream of Ras, without overactivating the Akt pathway, should be at least partially beneficial. The effect of Compound Z56 (and EPE peptide) on cell viability of Ras-transformed (and Ras-wild type) pancreatic cancer cells was determined, using a variety of cell lines.
The effects of Compound Z56 on the viability of pancreatic cancer cell lines at various times after treatment was compared with those of PLX4032 (a B-Raf inhibitor) and PD184352 (a MEK1/2 inhibitor).

[5] = tested on: BRAF-mutant, NRAS-mutant and NF1-mutant melanomas; settings: Arafeh et al., Sci Rep 2017; cited from earlier work
[6] = molecular target: interaction of importin7 and ERK1/2 (Homo sapiens, UniProt O95373); settings: Plotnikov et al., Nat Commun 2015; cited from earlier work
[7] = tested on: A2058 cells; experiment: Dose-response analysis, A2058 cells; type: cell-based; settings: 10 μM
Protocol: as §1, §2, §3

Sequence of interaction of importin7 and ERK1/2 (O95373 whole entry): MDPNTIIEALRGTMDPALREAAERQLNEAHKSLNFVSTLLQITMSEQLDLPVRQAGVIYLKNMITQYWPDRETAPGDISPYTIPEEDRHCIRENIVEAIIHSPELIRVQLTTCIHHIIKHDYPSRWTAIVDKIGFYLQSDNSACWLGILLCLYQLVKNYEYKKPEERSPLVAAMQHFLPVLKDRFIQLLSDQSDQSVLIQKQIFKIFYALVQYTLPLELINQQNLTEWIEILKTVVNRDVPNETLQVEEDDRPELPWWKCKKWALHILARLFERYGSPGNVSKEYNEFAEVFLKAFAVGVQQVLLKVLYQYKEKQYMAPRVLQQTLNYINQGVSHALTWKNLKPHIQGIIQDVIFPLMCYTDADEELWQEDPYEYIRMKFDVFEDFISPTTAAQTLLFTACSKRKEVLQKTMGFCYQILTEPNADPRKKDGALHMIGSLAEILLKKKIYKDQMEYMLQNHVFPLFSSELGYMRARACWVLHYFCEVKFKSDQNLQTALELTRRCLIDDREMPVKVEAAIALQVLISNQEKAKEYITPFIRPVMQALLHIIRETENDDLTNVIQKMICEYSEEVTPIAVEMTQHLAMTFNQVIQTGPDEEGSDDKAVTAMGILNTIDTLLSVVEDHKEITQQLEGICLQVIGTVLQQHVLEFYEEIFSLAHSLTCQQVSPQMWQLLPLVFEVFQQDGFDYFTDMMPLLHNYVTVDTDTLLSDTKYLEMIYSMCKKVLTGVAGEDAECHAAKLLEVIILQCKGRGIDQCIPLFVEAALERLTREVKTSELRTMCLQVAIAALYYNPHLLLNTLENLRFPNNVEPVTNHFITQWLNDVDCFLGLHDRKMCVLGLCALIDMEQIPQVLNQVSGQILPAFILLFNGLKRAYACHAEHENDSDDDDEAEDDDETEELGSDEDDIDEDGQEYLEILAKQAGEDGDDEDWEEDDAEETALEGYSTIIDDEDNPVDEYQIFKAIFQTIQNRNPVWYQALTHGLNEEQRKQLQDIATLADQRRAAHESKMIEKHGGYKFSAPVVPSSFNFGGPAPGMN

## EPE peptide: peptide GQLNHILGILGEPEQEDL (SEQ ID NO: 1) conjugated at N-terminus to myristic acid and C-terminal amidated (Myristoyl-GQLNHILGILGEPEQEDL-NH2; SMILES CCCCCCCCCCCCCC(=O)NCC(=O)N[C@@H](CCC(N)=O)C(=O)N[C@@H](CC(C)C)C(=O)N[C@@H](CC(N)=O)C(=O)N[C@@H](Cc1c[nH]cn1)C(=O)N[C@H](C(=O)N[C@@H](CC(C)C)C(=O)NCC(=O)N[C@H](C(=O)N[C@@H](CC(C)C)C(=O)NCC(=O)N[C@@H](CCC(=O)O)C(=O)N1CCC[C@H]1C(=O)N[C@@H](CCC(=O)O)C(=O)N[C@@H](CCC(N)=O)C(=O)N[C@@H](CCC(=O)O)C(=O)N[C@@H](CC(=O)O)C(=O)N[C@@H](CC(C)C)C(N)=O)[C@@H](C)CC)[C@@H](C)CC) [reference compound]
[1]
  viability of PC3 cells: only a very modest effect
[2]; 2 hours pretreatment, MCF7, A2352, HB2 and HeLa cells
  degree of ERK1/2 nuclear localization induced by TPA (percentage of cells with nuclear ERK1/2 staining): phenotype similar to the basal state
[2]; 2 hours, A2185 and A2352 cells
  nuclear accumulation of ERK1/2 upon TPA stimulation: inhibited
[3]
  proliferation of PC3, A2058 and MCF7 cells: not significantly affected
[3]; HeLa, A2352, A2185, LOX-IMVI, A4132, Z2024, MDA-MB-231
  apoptosis / proliferation of EPE-sensitive cell lines: induced apoptosis
[4]; 4 Ras-transformed pancreatic cell lines other than Panc-1 and AsPC-1
  proliferation/viability: no major effect
[4]; Ras-wild type BxPC-3 cells
  reduction of cell proliferation relative to control: 50%
[4]; only 2 of the 7 tested cell lines (Panc-1 and AsPC-1)
  cell viability and apoptosis: reduced cell viability and induced apoptosis
[5]
  combination with the MEK inhibitor trametinib, viability of NRAS-mutant melanomas: exhibited synergy
  viability of BRAF-mutant, NRAS-mutant and NF1-mutant melanomas: significantly reduced the viability
[6]
  interaction of importin7 and ERK1/2 and nuclear translocation of ERK1/2: blocks the interaction of importin7 and ERK1/2
[7]
  viability of BRAF melanoma cells A2058: lack of effect
